Counter-ions that a name gives are not always drawn.
These compounds were tested against T1, human D4 receptor (D4.2 sub-type) (Homo sapiens, UniProt P21917, DEL271-302) (assay: D4 receptor binding assay (3H-spiperone displacement)). Settings: 3H-spiperone 0.25 nM, HEK cell membranes, human D4.2; read-out: D4 RBA Ki.
T1 sequence (P21917 with tags, fused parts or gaps DEL271-302): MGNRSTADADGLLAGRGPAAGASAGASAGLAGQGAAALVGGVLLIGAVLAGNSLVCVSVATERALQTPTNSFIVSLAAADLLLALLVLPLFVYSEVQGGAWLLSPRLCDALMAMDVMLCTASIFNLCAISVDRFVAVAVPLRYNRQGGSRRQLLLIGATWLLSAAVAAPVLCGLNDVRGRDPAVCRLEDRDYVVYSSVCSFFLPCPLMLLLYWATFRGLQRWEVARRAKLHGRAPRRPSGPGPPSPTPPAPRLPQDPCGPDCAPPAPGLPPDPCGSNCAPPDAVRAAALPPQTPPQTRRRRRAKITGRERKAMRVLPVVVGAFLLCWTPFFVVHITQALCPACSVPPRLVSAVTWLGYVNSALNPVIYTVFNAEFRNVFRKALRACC
Procedure: D4 receptor-binding affinities of the compounds were evaluated according to their ability to reduce binding of ^3H-spiperone as compared to the reference compound clozapine. The potency of the test compound to reduce ^3H-spiperone binding directly correlated to its binding affinity for the receptor.
[…] (human embryonic kidney) cells stably transfected with human D4 receptor (D4.2 sub-type) were grown in NUNC cell factories for 5 days (75% confluency) without a media change and removed with versene (approximately 19 mg of cells per cell factory tray). The cells were then centrifuged in a Sorval centrifuge for 10 min, 5000 rpm (GS3 rotor) and the pellets quickly frozen in liquid nitrogen and stored at −80° C. until used in binding assay. When used in the assay, cells were thawed on ice for 20 min and then 10 mL of incubation buffer (50 mM Tris, 1 mM EDTA, 4 mM MgCl2, 5 mM KCl, 1.5 mM CaCl2, 120 mM NaCl, pH 7.4) was added. The cells were then vortexed to resuspend pellet and homogenized with a Kinematica, CH-6010 Kriens-LU, homogenizer for 15 seconds at setting 7. Concentration of receptor protein was determined using the Pierce BCA assay.
The incubation was started by the addition of 100 μl (50 μg protein) membrane homogenate to a solution of 300 μl incubation buffer and 100 μl (0.25 nM final conc.) ^3H-spiperone (90 Ci/mmol, Amersham, diluted in borosilicate glass vial) in 96-well polypropylene plates (1 mL per well). The plates were vortexed and incubated at room temperature for 90 minutes. The binding reaction was stopped by filtering using a Packard Harvester. The samples were filtered under vacuum over glass fibre filter plates (Whatman GF/B) presoaked for 2 hours in 0.3% polyethylenimine (PEI) in 50 mM Tris buffer (pH 7.4). The filters were then washed 6 times with 7 mL ice cold 50 mM Tris buffer (pH 7.4). The filter plates were dried overnight and 35 μl of Microscint-O (Packard) was added. The plates were sealed and counted in the Packard Top Count (3 minutes per well).
The incubation was started by the addition of 100 μl (50 μg protein) membrane homogenate to a solution of 200 μl incubation buffer, 100 μl ^3H-spiperone (90 Ci/mmol, Amersham, diluted in borosilicate glass vial to 0.25 nM final conc.) and 100 μl (30 μM final conc.) of fresh dopamine (Research Biochemicals Inc., light protected and dissolved in incubation buffer) in 96-well polypropylene plates (1 mL per well). The plates were vortexed and incubated at room temperature for 90 minutes at which time the binding reaction was stopped by filtering. The filters were washed and counted using the same procedure as in the total binding assay described above to give the non-specific binding value (NSB).
The incubation was started by the addition, in 96-well polypropylene plates (1 mL per well), of 100 μl (50 μg protein) membrane homogenate to a solution of 200 μl incubation buffer, 100 μl (0.25 nM final conc.) ^3H-spiperone (90 Ci/mmol, Amersham, diluted in borosilicate glass vial) and 100 μl of test compound that was prepared from 1 mM stock dissolved in DMSO and stored at −20° C. in polypropylene cryogenic storage vials until dilution in incubation buffer in 96-well polypropylene plates. The plates were vortexed and incubated at room temperature for 90 minutes at which time the binding reaction was stopped by filtering. The filters were washed and counted using the same procedure as in the total binding assay described above to give the displacement binding value (BD).
The test compounds were initially assayed at 1 and 0.1 μM and then at a range of concentrations chosen such that the middle dose would cause about 50% inhibition of ^3H-spiperone binding. Specific binding in the absence of test compound (B0) was the difference of total binding (BT) minus non-specific binding (NSB) and similarly specific binding (in the presence of test compound) (B) was the difference of displacement binding (BD) minus non-specific binding (NSB). […]

`Fc1ccc(CNCCOc2cccc(-c3noc4ccsc34)c2)cc1F` [Compound 37, (3,4-difluoro-benzyl)-[2-(3-thieno[2,3-d]isoxazol-3-yl-phenoxy)-ethyl]-amine] and `Fc1ccc(CNCCCOc2cccc(-c3noc4ccsc34)c2)cc1F` [Compound 42, (3,4-difluoro-benzyl)-[3-(3-thieno[2,3-d]isoxazol-3-yl-phenoxy)-propyl]-amine] are within 1.5-fold of each other in Ki: 32 nM for the first, 47 nM for the second.

Going from `c1cc(OCCNC2Cc3ccccc3C2)cc(-c2noc3ccsc23)c1` [Compound 46, indan-2-yl-[2-(3-thieno[2,3-d]isoxazol-3-yl-phenoxy)-ethyl]-amine hydrochloride] to `Fc1ccccc1CNCCCOc1cccc(-c2noc3ccsc23)c1` [Compound 2, (2-fluoro-benzyl)-[3-(3-thieno[2,3-d]isoxazol-3-yl-phenoxy)-propyl]-amine], the Ki rises from 36.1 nM to 62 nM (1.7-fold). The first binds more tightly here.

Going from `c1cc(OCCNCc2ccsc2)cc(-c2noc3ccsc23)c1` [Compound 33, [2-(3-thieno[2,3-d]isoxazol-3-yl-phenoxy)-ethyl]-thiophen-3-ylmethylamine hydrochloride] to `c1cc(OCCNC23CC4CC(CC(C4)C2)C3)cc(-c2noc3ccsc23)c1` [Compound 47, adamantan-1-yl-[2-(3-thieno[2,3-d]isoxazol-3-yl-phenoxy)-ethyl]-amine], the Ki rises from 15 nM to 23 nM (1.5-fold). The first binds more tightly here.

Same assay, conditions: @ 1 μM test compound; 3H-spiperone binding; read-out: D4 RBA % Inhibition (@ 1 μM)

Going from `c1ccc(N2CCN(CCCOc3cccc(-c4noc5ccsc45)c3)CC2)cc1` [Compound 10, 3-{3-[3-(4-phenyl-piperazin-1-yl)-propoxy]-phenyl}-thieno[2,3-d]isoxazole] to `Fc1ccccc1N1CCN(CCCOc2cccc(-c3noc4ccsc34)c2)CC1` [Compound 12, 3-(3-{3-[4-(2-fluoro-phenyl)-piperazin-1-yl]-propoxy}-phenyl)-thieno[2,3-d]isoxazole], the inhibition at 1 µM falls from 95% to 94%.

Going from `c1cc(OCCN2CCCCC2)cc(-c2noc3ccsc23)c1` [Compound 48, 3-[3-(2-piperidin-1-yl-ethoxy)-phenyl]-thieno[2,3-d]isoxazole] to `CC1CCN(CCOc2cccc(-c3noc4ccsc34)c2)CC1` [Compound 59, 3-{3-[2-(4-methyl-piperidin-1-yl)-ethoxy]-phenyl}-thieno[2,3-d]isoxazole], the inhibition at 1 µM rises from 83% to 90%.

Compared with `Fc1cccc(F)c1CNCCCOc1cccc(-c2noc3ccsc23)c1` [Compound 56, (2,6-difluoro-benzyl)-[3-(3-thieno[2,3-d]isoxazol-3-yl-phenoxy)-propyl]-amine], `Fc1ccccc1CNCCOc1cccc(-c2noc3ccsc23)c1` [Compound 34, (2-fluoro-benzyl)-[2-(3-thieno[2,3-d]isoxazol-3-yl-phenoxy)-ethyl]-amine] is higher in inhibition at 1 µM: 64% for the first, 93% for the second.

Compared with `Fc1ccc(CNCCOc2cccc(-c3noc4ccsc34)c2)c(F)c1` [Compound 49, (2,4-difluoro-benzyl)-[2-(3-thieno[2,3-d]isoxazol-3-yl-phenoxy)-ethyl]-amine], `Clc1ccccc1CNCCCOc1cccc(-c2noc3ccsc23)c1` [Compound 40, (2-chloro-benzyl)-[3-(3-thieno[2,3-d]isoxazol-3-yl-phenoxy)-propyl]-amine] is lower in inhibition at 1 µM: 95% for the first, 89% for the second.

First: c1cc(OCCCN2CCc3ccccc3C2)cc(-c2noc3ccsc23)c1 [Compound 45, 2-[3-(3-thieno[2,3-d]isoxazol-3-yl-phenoxy)-propyl]-1,2,3,4-tetrahydroisoquinoline]
Second: OC(CNCCCOc1cccc(-c2noc3ccsc23)c1)c1ccccc1 (centres unmarked) [Compound 9, 1-phenyl-2-[3-(3-thieno[2,3-d]isoxazol-3-yl-phenoxy)-propylamino]-ethanol]
The inhibition at 1 µM of the first is lower: 52% for the first, 73% for the second.

`NS(=O)(=O)c1ccc(CCNCCCOc2cccc(-c3noc4ccsc34)c2)cc1` [Compound 15, 4-{2-[3-(3-thieno[2,3-d]isoxazol-3-yl-phenoxy)-propylamino]-ethyl}-benzenesulfonamide] showed an inhibition at 1 µM of 65%.
